Active and inactive are the calls of the source.
Experiments:
[1] = off-target signal loss in HeLa-CEM21 co-culture – HeLa F-luc CTL cells, cherry-picked, counter-screen for HIV-1 Env fusion inhibitor project, dose response (AID 652040); assay type: functional, cell-based;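 note: potency for signal decrease marking cytotoxic or nonspecific inhibition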
[2] = inhibitors of HIV Env-driven cell fusion, dose response, cherry-pick (AID 652057); assay type: functional, cell-based
[3] = inhibitors of clade B AD8 Env fusion, dose response, cell-based, cherry-pick (AID 652062); assay type: functional;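 note: luciferase signal from cell-cell fusion driven by HIV-1 clade B AD8 Env; potency is for inhibitors of fusion seen as a drop in luminescence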
[4] = cells; assay type: functional, cell-based
[5] = system: HEK293; experiment: inhibitors of LMP1-driven NF-kB reporter, dose response, cell-based, HEK293, luciferase, cherry-pick (AID 588343); assay type: functional; settings: Homo sapiens
[6] = ZM109 Env clade C HIV-1 fusion inhibitors, dose response, HeLa effector, CEM target cells, luciferase, cherry-pick (AID 652058); assay type: functional, cell-based
[7] = cells; assay type: functional, cell-based; remark: listed apart in the source
[8] = HEK293T cytotoxicity, dose response, cytotoxicity control for miR-122 modulator project, cell-based, inhibitor set, cherry-pick, set 2 (AID 720697); assay type: functional
[9] = human group III sPLA2 inhibitors, dose response, biochemical, QFRET, IC50 (AID 743457);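 note: green fluorescence rise as the enzyme cleaves BODIPY PC-A2 in liposomes; potency for inhibition of the enzyme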
[10] = target: T1, Rac GTPase-activating protein 1 (Homo sapiens, UniProt Q9H0H5); experiment: MgcRacGAP GTPase-activating activity inhibitors, confirmation, biochemical, ADP Hunter fluorescence, primary and confirmatory (AID 624330); assay type: functional
T1 sequence (Q9H0H5 whole entry): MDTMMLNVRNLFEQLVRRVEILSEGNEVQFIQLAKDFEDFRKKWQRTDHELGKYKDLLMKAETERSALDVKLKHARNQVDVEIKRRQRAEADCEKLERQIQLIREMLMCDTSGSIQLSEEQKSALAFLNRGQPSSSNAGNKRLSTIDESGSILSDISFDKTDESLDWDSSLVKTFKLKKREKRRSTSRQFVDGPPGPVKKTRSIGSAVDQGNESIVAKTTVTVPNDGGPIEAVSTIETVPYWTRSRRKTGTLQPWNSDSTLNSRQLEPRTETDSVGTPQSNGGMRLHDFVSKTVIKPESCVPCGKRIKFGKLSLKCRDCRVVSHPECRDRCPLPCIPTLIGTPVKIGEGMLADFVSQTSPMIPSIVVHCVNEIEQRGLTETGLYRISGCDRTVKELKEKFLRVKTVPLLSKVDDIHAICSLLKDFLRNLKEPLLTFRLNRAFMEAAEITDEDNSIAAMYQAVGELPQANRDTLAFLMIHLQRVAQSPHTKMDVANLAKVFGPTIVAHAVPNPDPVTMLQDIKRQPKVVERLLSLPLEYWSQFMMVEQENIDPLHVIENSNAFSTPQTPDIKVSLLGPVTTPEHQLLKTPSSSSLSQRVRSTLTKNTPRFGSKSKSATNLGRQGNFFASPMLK

[11] = target: FAD-linked sulfhydryl oxidase ALR (Homo sapiens, UniProt P55789); experiment: inhibitors of human ALR sulfhydryl oxidase, dose response, biochemical, H2O2 detection, luminescence, cherry-pick (AID 493248)
Sequence of FAD-linked sulfhydryl oxidase ALR (P55789 whole entry): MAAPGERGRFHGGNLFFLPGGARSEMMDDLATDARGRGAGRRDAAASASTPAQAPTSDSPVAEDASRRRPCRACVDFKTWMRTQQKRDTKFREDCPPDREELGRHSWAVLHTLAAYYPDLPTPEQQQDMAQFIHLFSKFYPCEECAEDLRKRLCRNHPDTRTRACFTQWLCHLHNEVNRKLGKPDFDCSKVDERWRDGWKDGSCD

[12] = target: T2, Low molecular weight phosphotyrosine protein phosphatase (Homo sapiens, UniProt P24666); assay type: functional; settings: read-out: IC50_Mean;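 note: Dose-response confirmation assay measuring inhibition of LMPTP enzyme activity by fluorescence intensity read-out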
T2 sequence (P24666 whole entry): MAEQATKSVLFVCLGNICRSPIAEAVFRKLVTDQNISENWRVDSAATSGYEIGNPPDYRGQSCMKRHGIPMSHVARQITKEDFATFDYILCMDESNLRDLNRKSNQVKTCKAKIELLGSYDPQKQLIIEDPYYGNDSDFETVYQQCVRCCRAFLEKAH

[13] = target: Steroidogenic factor 1 (Homo sapiens, UniProt Q13285); experiment: Counterscreen for inverse agonists of the liver receptor homolog-1 (LRH-1; NR5A2): Luminescence-based cell-based high throughput dose response assay to identify inverse agonists of the Steroidogenic Factor 1 Nuclear Receptor (SF1; NR5A1).; assay type: functional
Sequence of Steroidogenic factor 1 (Q13285 whole entry): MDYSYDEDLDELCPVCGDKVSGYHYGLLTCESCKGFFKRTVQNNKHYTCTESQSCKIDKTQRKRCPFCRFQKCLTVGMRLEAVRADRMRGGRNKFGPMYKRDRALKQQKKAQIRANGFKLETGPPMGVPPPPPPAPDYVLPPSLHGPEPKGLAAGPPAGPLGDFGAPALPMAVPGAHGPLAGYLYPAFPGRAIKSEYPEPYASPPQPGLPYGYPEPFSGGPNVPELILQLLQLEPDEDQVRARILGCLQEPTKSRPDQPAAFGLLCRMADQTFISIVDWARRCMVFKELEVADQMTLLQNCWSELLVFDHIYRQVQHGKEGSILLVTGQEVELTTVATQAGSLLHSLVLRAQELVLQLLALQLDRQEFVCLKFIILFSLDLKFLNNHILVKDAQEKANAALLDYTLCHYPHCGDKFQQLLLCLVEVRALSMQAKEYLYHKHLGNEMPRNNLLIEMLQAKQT

[14] = target: Albumin (Bos taurus, UniProt P02769); experiment: Counterscreen for inhibitors of T-cell receptor (TCR)-CD3 interaction: Fluorescence-based biochemical high throughput dose response assay to identify inhibitors of T-cell receptor (TCR)-CD3 interaction using a TAMRA-labeled BSA probe.; assay type: functional
Sequence of Albumin (P02769 whole entry, the tested form may be a part): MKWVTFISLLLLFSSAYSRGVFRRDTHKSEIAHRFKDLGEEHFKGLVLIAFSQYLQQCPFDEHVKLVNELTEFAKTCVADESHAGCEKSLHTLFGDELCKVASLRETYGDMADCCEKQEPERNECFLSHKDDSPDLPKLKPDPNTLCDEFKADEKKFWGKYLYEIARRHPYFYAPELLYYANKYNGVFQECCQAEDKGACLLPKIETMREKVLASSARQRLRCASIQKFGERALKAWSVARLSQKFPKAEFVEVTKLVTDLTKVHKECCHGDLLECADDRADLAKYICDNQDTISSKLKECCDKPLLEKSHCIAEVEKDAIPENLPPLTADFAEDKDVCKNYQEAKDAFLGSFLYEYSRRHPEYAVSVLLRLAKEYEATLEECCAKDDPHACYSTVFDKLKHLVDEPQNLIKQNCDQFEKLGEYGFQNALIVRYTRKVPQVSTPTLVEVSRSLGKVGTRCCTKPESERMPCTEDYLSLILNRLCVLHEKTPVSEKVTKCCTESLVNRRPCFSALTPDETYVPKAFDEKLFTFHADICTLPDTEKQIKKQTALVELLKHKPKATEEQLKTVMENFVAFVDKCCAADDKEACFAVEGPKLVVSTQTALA

[15] = target: T3, Carboxy-terminal domain RNA polymerase II polypeptide A small phosphatase 1 (Homo sapiens, UniProt Q9GZU7); experiment: inhibitors of CTDSP1, concentration-response testing, biochemical assay, absorbance-based, actives from ultra-high-throughput screening (AID 540297); assay type: functional
T3 sequence (Q9GZU7 whole entry): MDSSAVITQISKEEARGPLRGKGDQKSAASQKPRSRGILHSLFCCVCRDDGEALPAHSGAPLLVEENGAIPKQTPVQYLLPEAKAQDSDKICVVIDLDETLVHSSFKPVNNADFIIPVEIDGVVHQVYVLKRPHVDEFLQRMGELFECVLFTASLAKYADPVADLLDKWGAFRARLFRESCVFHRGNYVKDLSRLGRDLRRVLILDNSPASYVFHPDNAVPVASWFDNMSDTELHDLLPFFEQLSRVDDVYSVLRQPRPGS

[16] = target: Nuclear receptor subfamily 5 group A member 2 (Homo sapiens, UniProt O00482); assay type: functional, cell-based;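 note: HEK293T cells transfected with LRH-1 and a StAR promoter luciferase reporter; potency for inhibitors that lower LRH-1 driven reporter light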
Sequence of Nuclear receptor subfamily 5 group A member 2 (O00482 whole entry): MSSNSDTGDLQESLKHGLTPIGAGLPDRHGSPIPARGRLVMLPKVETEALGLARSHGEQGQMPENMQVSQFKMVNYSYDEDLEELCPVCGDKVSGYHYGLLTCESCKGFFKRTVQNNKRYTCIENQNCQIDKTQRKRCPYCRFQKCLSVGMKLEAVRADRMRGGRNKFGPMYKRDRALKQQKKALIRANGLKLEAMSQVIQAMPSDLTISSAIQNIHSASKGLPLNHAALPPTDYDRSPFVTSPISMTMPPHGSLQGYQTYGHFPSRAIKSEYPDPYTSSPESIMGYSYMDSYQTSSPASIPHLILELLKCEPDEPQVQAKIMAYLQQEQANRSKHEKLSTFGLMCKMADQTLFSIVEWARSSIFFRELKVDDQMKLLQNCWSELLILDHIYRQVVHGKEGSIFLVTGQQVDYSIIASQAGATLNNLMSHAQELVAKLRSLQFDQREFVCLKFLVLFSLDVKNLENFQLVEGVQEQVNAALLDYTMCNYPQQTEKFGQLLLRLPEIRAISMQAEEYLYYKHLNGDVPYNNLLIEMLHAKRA

[17] = target: fMet-Leu-Phe receptor (Homo sapiens, UniProt P21462); experiment: FPR ligands, dose response (AID 519); assay type: functional
Sequence of fMet-Leu-Phe receptor (P21462 whole entry): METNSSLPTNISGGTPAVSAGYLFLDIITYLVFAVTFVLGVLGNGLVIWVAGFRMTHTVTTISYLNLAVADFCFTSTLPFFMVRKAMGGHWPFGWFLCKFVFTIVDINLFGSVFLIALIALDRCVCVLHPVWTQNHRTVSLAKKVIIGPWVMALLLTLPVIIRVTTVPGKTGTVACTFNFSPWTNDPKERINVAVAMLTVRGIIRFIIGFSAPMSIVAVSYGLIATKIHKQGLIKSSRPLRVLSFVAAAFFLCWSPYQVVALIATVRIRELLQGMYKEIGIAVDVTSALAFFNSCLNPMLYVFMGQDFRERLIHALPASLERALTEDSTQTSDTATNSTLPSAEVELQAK

[18] = target: T4, DNA repair and recombination protein RAD54-like (Homo sapiens, UniProt Q92698); experiment: inhibitors of human RAD54 branch migration, confirmation, biochemical, fluorescence, cherry-picked samples, dose series (AID 651657); assay type: functional
T4 sequence (Q92698 whole entry): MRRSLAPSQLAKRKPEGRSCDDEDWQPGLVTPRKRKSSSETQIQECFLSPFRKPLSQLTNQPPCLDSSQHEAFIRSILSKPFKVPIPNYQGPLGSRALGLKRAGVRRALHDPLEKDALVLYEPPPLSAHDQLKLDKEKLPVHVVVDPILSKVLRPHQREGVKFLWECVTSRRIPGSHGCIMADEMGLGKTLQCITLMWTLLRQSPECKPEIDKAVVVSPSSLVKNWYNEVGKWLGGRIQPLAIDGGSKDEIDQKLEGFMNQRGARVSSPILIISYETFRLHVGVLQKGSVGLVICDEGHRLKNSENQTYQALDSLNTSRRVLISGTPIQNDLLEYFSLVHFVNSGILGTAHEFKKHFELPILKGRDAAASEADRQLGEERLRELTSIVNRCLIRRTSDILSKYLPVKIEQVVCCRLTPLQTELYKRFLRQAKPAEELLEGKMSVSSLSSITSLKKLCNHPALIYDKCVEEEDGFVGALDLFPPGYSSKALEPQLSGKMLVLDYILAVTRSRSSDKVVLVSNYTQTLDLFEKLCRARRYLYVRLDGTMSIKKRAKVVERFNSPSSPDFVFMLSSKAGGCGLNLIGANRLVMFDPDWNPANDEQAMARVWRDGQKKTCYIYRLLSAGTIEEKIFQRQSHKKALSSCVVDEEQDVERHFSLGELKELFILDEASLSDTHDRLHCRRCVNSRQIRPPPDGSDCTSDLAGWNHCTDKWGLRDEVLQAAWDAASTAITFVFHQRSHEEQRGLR

[19] = target: T5, DNA repair protein RAD52 homolog (Homo sapiens, UniProt P43351); assay type: functional, biochemical
T5 sequence (P43351 whole entry): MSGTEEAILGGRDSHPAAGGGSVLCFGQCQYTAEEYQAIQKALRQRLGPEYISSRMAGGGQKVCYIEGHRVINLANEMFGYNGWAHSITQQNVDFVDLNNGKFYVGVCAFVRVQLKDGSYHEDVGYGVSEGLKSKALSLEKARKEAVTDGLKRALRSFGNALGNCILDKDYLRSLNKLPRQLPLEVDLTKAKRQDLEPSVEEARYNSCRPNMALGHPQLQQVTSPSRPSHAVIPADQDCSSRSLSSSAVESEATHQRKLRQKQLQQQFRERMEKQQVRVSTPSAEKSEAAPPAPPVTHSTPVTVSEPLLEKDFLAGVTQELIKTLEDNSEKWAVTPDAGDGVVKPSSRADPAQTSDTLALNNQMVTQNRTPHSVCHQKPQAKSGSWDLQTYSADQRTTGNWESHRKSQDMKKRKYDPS

[20] = target: T6, Oxysterols receptor LXR-beta (Homo sapiens, UniProt P55055); assay type: functional, cell-based;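 note: agonist activity at LXR measured by a cell-based luminescence readout across a dose range, run as a counterscreen for daf-12 agonists; HEK293 cells with Gal4-LXR fusion and GAL4-driven luciferase reporter; potency for activation of Gal4-LXR reporter so compounds are agonists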
T6 sequence (P55055 whole entry): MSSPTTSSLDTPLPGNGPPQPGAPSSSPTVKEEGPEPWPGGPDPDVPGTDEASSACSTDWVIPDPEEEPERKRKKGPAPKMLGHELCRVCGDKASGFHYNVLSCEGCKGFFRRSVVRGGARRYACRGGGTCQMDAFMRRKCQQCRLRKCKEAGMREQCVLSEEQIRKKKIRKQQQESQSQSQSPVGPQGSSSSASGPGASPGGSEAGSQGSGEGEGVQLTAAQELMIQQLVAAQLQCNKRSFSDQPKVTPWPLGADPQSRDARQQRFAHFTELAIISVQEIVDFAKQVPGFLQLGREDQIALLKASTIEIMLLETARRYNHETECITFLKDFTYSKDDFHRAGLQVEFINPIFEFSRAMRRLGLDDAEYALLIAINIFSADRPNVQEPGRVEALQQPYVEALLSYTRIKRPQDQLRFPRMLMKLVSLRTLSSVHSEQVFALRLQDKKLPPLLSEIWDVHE

[21] = target: T7, Trace amine-associated receptor 1 (Homo sapiens, UniProt Q96RJ0); experiment: Fluorescence-based cell-based high throughput dose response assay to identify agonists of the human trace amine associated receptor 1 (TAAR1).; assay type: functional
T7 sequence (Q96RJ0 whole entry): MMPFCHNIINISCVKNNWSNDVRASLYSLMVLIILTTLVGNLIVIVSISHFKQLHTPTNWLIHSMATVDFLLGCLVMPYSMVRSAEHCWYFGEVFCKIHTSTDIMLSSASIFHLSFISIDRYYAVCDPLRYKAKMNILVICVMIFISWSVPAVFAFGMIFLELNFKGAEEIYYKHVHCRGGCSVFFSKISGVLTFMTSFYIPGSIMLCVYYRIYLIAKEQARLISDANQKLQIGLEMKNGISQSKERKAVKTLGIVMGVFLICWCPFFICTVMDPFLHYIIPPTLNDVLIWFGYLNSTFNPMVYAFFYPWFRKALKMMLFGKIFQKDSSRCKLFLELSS

[22] = cells; assay type: functional, cell-based; remark: listed apart in the source
[23] = cells; assay type: functional, cell-based; remark: listed apart in the source
[24] = target: T7, Trace amine-associated receptor 1; experiment: Counterscreen for agonists of the human trace amine associated receptor 1 (hTAAR1): Fluorescence-based cell-based high throughput dose response assay to identify hTAAR1 agonist that also desensitize TAAR1 receptor response.; assay type: functional
[25] = CEM21 lymphoblast cell cytotoxicity, dose response, cytotoxicity control for viral fusion inhibitor project, CellTiter-Glo luminescence, cherry-picked (AID 652042); assay type: functional, cell-based;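 note: potency for signal decrease meaning cytotoxicity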
[26] = T. cruzi growth inhibition in host cells, dose response, cell-based, plate reader, dry powder, set 2 (AID 652275); assay type: functional
[27] = MITF: Counter assay: A375 proliferation Measured in Cell-Based System Using Plate Reader - 2084-03_Inhibitor_Dose_DryPowder_Activity_Set8.; assay type: functional; settings: A-375
[28] = MITF Orthogonal Assay: SK-MEL-5 CTG Assay Measured in Cell-Based System Using Plate Reader - 2084-02_Inhibitor_Dose_DryPowder_Activity_Set7.; assay type: functional

NC(=O)c1sc2nccc(Nc3ccccc3)c2c1N
AC50 [1]: 2.12 µM (active)
AC50 [2]: 1.37 µM (active)
AC50 [3]: < 0.26 µM (active)
EC50 [4]: > 350 µM (not active)
AC50 [5]: 3.96 µM (active)
AC50 [6]: 0.726 µM (active)
EC50 [7]: > 350 µM (not active)

CCOc1ccc(C(CCc2ccccc2)NC(=O)c2ccccc2F)cc1OCC (stereo not given)
AC50 [8]: 4.56 µM (active)

O=C(Nc1ccc(N2CCCCCC2)cc1)c1ccc[nH]1
IC50 [9]: 100 µM (inactive)
IC50 [10]: 34 µM (active)
AC50 [11]: 0.42 µM (active)

COc1ccc(NC(=O)CSc2sc3c(O)cc(=O)[nH]c3c2C#N)c(OC)c1
IC50 [12]: 26 µM (inactive)
IC50 [13]: 13 µM (inactive)
IC50 [14]: > 94.1 µM (inactive)
IC50 [15]: 4.21 µM (active)
IC50 [16]: 20.2 µM (inactive)

Cc1c(CNCc2cccs2)c(C(=O)O)c(C)n1Cc1ccccc1
Ki [17]: > 66.7 µM (inactive)

COc1ccc2oc3cc(NCCN(C)C)ccc3c(=O)c2c1
AC50 [18]: 7.73 µM (active)
AC50 [19]: 5.46 µM (active)
EC50 [20]: > 67.5 µM (inactive)

O=C(CC1CCCC1)N[C@H](C(=O)N1CCC[C@H]1C(=O)NCCc1ccccc1Cl)c1ccccc1
EC50 [21]: 2.2 µM (active)
IC50 [22]: > 29.9 µM (inactive)
EC50 [23]: > 29.9 µM (inactive)
IC50 [24]: 6.57 µM (active)

COc1ccc2c3c([nH]c2c1)[C@H](CO)N(C(=O)Nc1cccc(F)c1)CC31CCN(S(=O)(=O)c2ccccc2)CC1
AC50 [2]: 25.4 µM (active)
AC50 [25]: 19.4 µM (active)

CC(C)N1CC2(CN(Cc3ccccn3)C2)Oc2c(NC(=O)c3ccncc3)cccc2C1=O
AC50 [26]: 1.37 µM (active)

O=C1C=C(NC2CCCCC2)C(=O)c2ccccc21
AC50 [27]: > 70 µM (inactive)
AC50 [28]: 18.9 µM (active)

COCCNC(=O)c1cc2c(c(-c3cccc(C#CCN(C)C)c3)n1)[C@@H](CCO)N([S+]([O-])C(C)(C)C)C2 (stereo not given in full)
AC50 [26]: 4.21 µM (active)

Source: ChEMBL document CHEMBL1201862, “PubChem BioAssay data set” (2004)
